In brackets after ≈: the same amount, converted by molar mass.
Test system: HIV-1 (RF)
Test: HIV RNA Assay (HIV-1 infected MT-2 cells)
Type: cell-based
Details: Human immunodeficiency virus 1, MT2, 72 h; HIV-1 (RF) infected MT-2 cells, 3 days of culture; read-out: IC90 value (concentration of compound required to reduce the HIV RNA level by 90%)
Description: DNA Plasmids and in vitro RNA transcripts
Plasmid pDAB 72 containing both gag and pol sequences of BH10 (bp 113-1816) cloned into PTZ 19R was prepared according to Erickson-Viitanen et al., AIDS Research and Human Retroviruses (1989) 5:577. The plasmid was linearized with Bam HI prior to the generation of in vitro RNA transcripts using the Riboprobe Gemini system II kit (Promega) with T7 RNA polymerase. Synthesized RNA was purified by treatment with RNase free DNAse (Promega), phenol-chloroform extraction, and ethanol precipitation. RNA transcripts were dissolved in water, and stored a -70° C. The concentration of RNA was determined from the A260.
Biotinylated capture probes were purified by HPLC after synthesis on an Applied Biosystems (Foster City, Calif.) DNA synthesizer by addition of biotin to the 5' terminal end of the oligonucleotide, using the biotin-phosphoramidite reagent of Cocuzza, Tet. Lett. (1989) 30:6287. […]
MT-2, CEM, and H9 cells were maintained in RPMI 1640 supplemented with 5% fetal calf serum (FCS), 2 mM L-glutamine and 50 μg/mL gentamycin, all from Gibco. […] Infectious titers of HIV-1(RF) stocks were 1-3×10^7 PFU (plaque forming units)/mL as measured by plaque assay on MT-2 cells (see below). […]

Nc1ccn([C@H]2CC[C@@H](CO)O2)c(=O)n1 [ddC, 2',3'-dideoxycytidine]
IC90: 0.2 µg/mL (≈ 0.947 µM)
